Results as given in patent US5436273A, “Psychoactive propargylamine derivatives used in the treatment of anxiety, psychotic states or aggression” (Lowchol Scientific, Inc., priority 1993, dated 1995).
“Also recorded” adds a separate entry of the source. Where two headings read alike, the source gives them in different places.

Columns and labels:
[1] = test system: motor coordination (rotarod) in mice; settings: mouse, in vivo
[2] = test system: righting reflex / ethanol narcosis in mice; assay: Potentiation of sleeping time induced by ethanol in mice; format: in vivo, CD #1 mice; settings: for percentage of animals displaying a loss of the righting reflex: with ethanol
Method: 7. Potentiation of Sleeping Time Induced by Ethanol in Mice
This test was done with male CD #1 mice of 25-35 g. The mice are injected intraperitoneally (8 mice per dose). A subhypnotic dose of ethanol (12 ml/kg of 50% ethanol solution) is administered orally 30 minutes later.
The loss of the righting reflex is evaluated, for each animal, 30 minutes after the administration of the alcohol. It is considered that there is a potentialization of ethanol narcosis if the righting time exceeded 30 seconds.
The results which are reported in Table 7 are expressed in terms of the percentage of animals displaying a loss of the righting reflex versus the administered dose. Chlorpromazine (5 mg/kg i.p.) is used as a standard.

[3] = in vivo; settings: mouse, ip
[4] = test system: isolation induced aggressive behavior in mice; assay: Inhibition of isolation induced fighting behavior in mice; format: in vivo, CD #1 mice; settings: i.p.
Method: 1. Inhibition of Isolation Induced Fighting Behavior in Mice
After this period of confinement, the animals usually develop a marked intraspecific aggressive behavior when they are placed in the same cage.
The compound to be studied is administered i.p. to the selected groups (N=8 pairs/dose×5 doses) and the aggressive behavior is tested again 30 minutes later. […] A one week washout period is allowed between treatments.

[5] = Plasma concentration in combative mice as a function of time; format: in vivo; settings: 10 mg/kg i.p.
Method: A calibration curve is established using mouse blood plasma. Two samples are used for each concentration. The method used is as follows.
200 μl of plasma are taken and denaturated with 400 μl of acetonitrile. 500 μl of the clear liquid is taken.
A derivative is made with 50 μl of orthophthalaldehyde (0.05M) in a test tube and 25 μl of the solution is injected into a high performance liquid chromatography apparatus after 30 minutes.
3-Amino-4-pentyne is used as standard.
The following equation describes the calibration curve: […]
The concentration of compound N^o 3 in the plasma is given by the following equation: [formula] B. Evaluation in Vivo
The pharmacokinetic profile is established in combative mice.
The mice are placed together, in pairs, for 5 minutes. This pairing is performed 10, 25, 55, 85 and 115 minutes after the administration of compound N^o 3. One minute after each of the 5 minute periods of placing the animals together, three pairs of animals are anesthetized with ether and guillotined in order to determine the concentration of compound N^o 3 in the plasma. The plasma sample is prepared by centrifugation (16,000 G) of 800 μl of blood to which 50 μl of EDTA Na4 (0.1M) is added. The inhibition of aggressive behavior at the different times in which the animals are placed together and the number of pairs evaluated is shown in the following Table: […]

[6] = test system: aggressive behavior of combative mice; assay: Duration of antiaggressive effect; format: in vivo; settings: single dose 10 mg/kg i.p., FIG. 2
Description: 11. Duration of Antiaggressive Effect

[7] = Effect on body temperature in mice; format: in vivo, CD #1 mice; settings: for Temp. Difference from Control: one hour
Method: 9. Effect on Body Temperature in Mice
Female CD #1 mice (20-30 g) are used. Rectal temperature is recorded before and one hour after s.c. administration of the compound to be studied (N=8/doses×4 doses). The solvent used is sterile water for intravenous injection.
The results which are reported in Table 9 are expressed in terms of the variation of temperature for different doses. Buspirone was tested on Sprague Dawley rats.

[8] = test system: conditioned avoidance response in rats; assay: Inhibition of conditioned avoidance response in rats; format: in vivo, Sprague Dawley rats
Description: 6. Inhibition of Conditioned Avoidance Response in Rats
Male Sprague Dawley rats (200-250 g) are trained to avoid an electric foot shock, by continuously changing room with the appropriate visuals and auditory signals, in an automatic 2-way conditioned avoidance apparatus (Coulbourn Instrument Co.). Only the animals that perform at least a 70% avoidance (3 successive training sessions) are kept for the experiment.
The day of the experiment, the selected animals are submitted to a pre-treatment control session. The compound to be studied is then administered i.p. and the animals are placed back in the apparatus for evaluation 30 minutes later. Diazepam was used as a standard.

[9] = test system: exploratory behavior in rats; assay: Inhibition of exploratory behavior in rats (hole poking); format: in vivo, Sprague-Dawley rats; settings: rats
Method: 8. Inhibition of Exploratory Behavior in Rats (Hole Poking).
This test is done with Sprague-Dawley male rats of about 300 g. Activity is evaluated with a […] XYZ activity cage connected to a […] […] DCM-4. A perforated plate (16 holes of 2-5 cm diameter) is placed in the enclosure and on the activity case to register vertical activity. The number of times the rat placed his snout into the holes during a 10 minute period is recorded. The test was started 30 minutes after the interperitoneal injection of the compound to be studied.
The results which are reported in Table 8 are expressed in terms of the dose required to diminish by 50% the exploratory behavior, with reference to animals injected with the carrier only. Diazepam and buspirone are used as standards.

[10] = test system: spontaneous motor activity in rats; assay: Inhibition of spontaneous motor activity in rats; format: in vivo, Sprague Dawley rats; settings: for ED50: Rattus norvegicus, ip, 0.5 h, i.p., 30 minutes
Method: Two animals are studied simultaneously, one treated and one control. After a 2 hour period of acclimatization to the room, a first activity count of 10 minutes duration is perfomed. The compound to be studied is then administered i.p. and the spontaneous activity is reevaluated 30 minutes later over a period of 10 minutes.
5. Inhibition of Spontaneous Motor Activity in Rats
The method is the same as described above for mice, except that because of the size of the animals (Sprague Dawley rats; 300 g), the test and control animals are not evaluated simultaneously, but alternatively.

SMILES: C#CC(C)N (stereo not shown) [Compound 3, 2-Amino-3-butyne]
- neurotoxicity / motor activity (in words) [1]: much less neurotoxic than buspirone (rot TD50 =135 mg/kg p.o.) and diazepam
- percentage of animals displaying a loss of the righting reflex ([2]; 10 mg/kg i.p.): 50%
- percentage of animals displaying a loss of the righting reflex ([2]; 30 mg/kg i.p.): 50%
- percentage of animals displaying a loss of the righting reflex ([2]; 100 mg/kg i.p.): 25%
- potentiation of ethanol (in words) ([2]; subhypnotic dose of ethanol, mice): active at t = 30 min; also recorded: potentiate the effect of a subhypnotic effect dose of ethanol
- TD50 at 0.5 h [3]: 720 mg/kg
- ED50 ([4]; Mus musculus, ip, 0.5 h, read-out: ED50 (dose that suppressed aggressive behavior in 50% of the animals), 30 minutes after administration, probit analysis): 8 mg/kg
- inhibition of aggressive behavior (in words) ([4]; mice): particularly potent inhibitors
- elimination / plasma level (in words) ([5]; FIG. 1): elimination of compound N^o 3 is very rapid; also recorded: not detectable, by the method used, 90 minutes after the injection
- concentration at […] ([5]; mouse, plasma, ip, 15 min, N = 6, read-out: plasma concentration ± S.E.): 4800 ± 400 µM
- concentration at 0.5 h ([5]; mouse, plasma, ip, 30 min, N = 6, read-out: plasma concentration ± S.E.): 2000 ± 200 µM
- concentration at 1 h ([5]; mouse, plasma, ip, 60 min, N = 5, read-out: plasma concentration ± S.E.): 900 ± 200 µM
- concentration at 1.5 h ([5]; mouse, plasma, ip, 90 min, N = 6, read-out: plasma concentration ± S.E.): < 5 µM
- concentration at 2 h ([5]; mouse, plasma, ip, 120 min, N = 6, read-out: plasma concentration ± S.E.): < 5 µM
- duration of inhibitory effect on aggressive behavior [6]: approximately 4 hours
- Temp. Difference from Control ([7]; dose 10, s.c.): -2.6
- Temp. Difference from Control ([7]; dose 30, s.c.): -2.5
- Temp. Difference from Control ([7]; dose 100, s.c.): -4.1
- hypothermia (in words) ([7]; s.c.): slight, transient hypothermia comparable to that induced by buspirone
- conditioned avoidance response, first exposure ([8]; 10 mg/kg i.p., first exposure): 3%
- conditioned avoidance response, re-exposed ([8]; 10 mg/kg i.p., re-exposed): 29%
- ED50 ([8]; Rattus norvegicus, ip, 0.5 h, calculated with repeated exposure, r^2 = 0.43): 21.5 ± 11.2 mg/kg
- inhibition of conditioned avoidance response (in words) ([8]; rats): very active at first; also recorded: much less active if re-; also recorded: inhibit conditioned avoidance in rats, but are less active than diazepam; also recorded: loss of activity in the case of compound N^o 3 after the first exposure to the drug; also recorded: does not seem to impair the animal's sensory discrimination at doses 2 to 3 times above that which produces a quieting effect with repeated exposure
- ED50 ([9]; Rattus norvegicus, ip, 0.5 h, i.p., 30 minutes, read-out: dose required to diminish by 50% the exploratory behavior): 4.6 ± 2.6 mg/kg
- inhibition of exploratory behavior (in words) [9]: more potent, in this respect, than diazepam but they rapidly lose their ability to produce this effect after the first administration
- inhibition of spontaneous motor activity (in words) [10]: of comparable activity in rats
- ED50 ([10]; read-out: ED50, clockwise revolutions): 4.1 ± 1.4 mg/kg
- ED50 ([10]; read-out: ED50, counterclockwise revolutions): 3.7 ± 1.7 mg/kg
- ED50 ([10]; read-out: ED50, horizontal activity): 4.2 ± 1.8 mg/kg
- ED50 ([10]; read-out: ED50, movement time): 5.5 ± 2.3 mg/kg
- ED50 ([10]; read-out: ED50, number of movements): 11.8 ± 7.9 mg/kg
- ED50 ([10]; read-out: ED50, number of stereotypic movements): 5.2 ± 2.4 mg/kg
- ED50 ([10]; read-out: ED50, stereotypy time): 4.2 ± 1.7 mg/kg
- ED50 ([10]; read-out: ED50, total distance): 4.9 ± 2 mg/kg
